Test results taken from patent publication US5336621A, “Divalent hapten derivatives” (Hoechst Celanese Corporation, priority 1988, dated 1994).

Assay: Solubility comparison for bis-(theophylline-8-butyryl)-diamides
Format: physicochemical
Procedure: The bis-(theophylline-8-butyryl)-diamides of 1,6-hexanediamine and 4,9-dioxa-1,12-dodecanediamine (examples 2 and 3) were each dissolved in dimethylsulfoxide. The 4,9-dioxa-1,12-dodecanediamide dissolved readily to give a solution of 10 mg/0.5 ml at room temperature.

solution obtained in dimethylsulfoxide (required heating to obtain a solution in dimethylsulfoxide) | behaviour on dilution of DMSO solution into aqueous phosphate buffer (10 mg/0.5 ml DMSO solution diluted into 2 ml of 50 mM aqueous sodium phosphate buffer (pH 7.5)) | solution obtained in dimethylsulfoxide (dissolved readily in dimethylsulfoxide, room temperature) | SMILES | behaviour on dilution of DMSO solution into aqueous phosphate buffer (10 mg/2 ml DMSO solution diluted into a two-fold volume of pH 7.5 phosphate buffer)
10 mg/2 ml | – | – | Cn1c(=O)c2[nH]c(CCCC(=O)NCCCCCCNC(=O)CCCc3nc4c([nH]3)c(=O)n(C)c(=O)n4C)nc2n(C)c1=O [Example 2, bis-(Theophylline-8-butyryl)-1,6-hexanediamine] | immediate heavy precipitation of divalent hapten was noted
– | clear, stable solution | 10 mg/0.5 ml | Cn1c(=O)c2[nH]c(CCCC(=O)NCCCOCCCCOCCCNC(=O)CCCc3nc4c([nH]3)c(=O)n(C)c(=O)n4C)nc2n(C)c1=O [Example 3, bis-(Theophylline-8-butyryl)-4,9-dioxa-1,12-dodecane-diamide] | –
